The text below walks through data of US10478446B2, “Compounds for use in polycystic kidney disease” (FONDAZIONE CENTRO SAN RAFFAELE OFFICE OF BIOTECHNOLOGY …, priority 2012, dated 2019).

“Also recorded” adds a separate entry of the source.

Data set [1] deals with wt mice (ksp-cre: Pkd1^+/flox). The data set can be described thus: 2DG treatment of wt mice. To be noted: 2DG 500 mg/kg daily P6 to P8. It counts as in vivo, mouse. How it is done:
(§1) Generation of Pkd1^flox/−:Ksp-Cre mice was previously described. Briefly, we crossed Pkd1^flox/flox29 and Pkd1^+/−: Ksp-Cre mice in pure C57/B16 genetic background. For treatments 2DG (Sigma-Aldrich) or vehicle (NaCl) were injected subcutaneously daily from P6 until P8 at 500 mg/kg.
(§2) 2DG (Sigma-Aldrich) or vehicle (NaCl) were injected subcutaneously daily from P6 until P8 at 500 mg/kg.
(§3) After sacrifice, kidneys were removed, washed in phosphate-buffered saline (PBS), weighed and fixed in 4% Para formaldehyde (PFA). After incubation in a sucrose in PBS gradient scale from 10% to 30% samples were incubated in 10% glycerol (Sigma) in a mixture of OCT (BIO-OPTICA) and sucrose 30%, finally embedded in OCT. Criostat sections were air-dried 1 h, rehydrated in PBS, incubated in Harris Hematoxylin 1:10 (Sigma Aldrich) for 2 min, washed, incubated in Eosin G (BIO-OPTICA) for 7 min, washed dehydrated and mounted in DEPEX (Sigma).

Another data set deals with Pkd1^flox/−:Ksp-Cre mice. Description: 2DG treatment of mice with cystic kidneys. It is filed as in vivo, mouse. As for the experimental part:
For proliferation assays immunostaining was carried our using an anti-Ki67 antibody followed by analysis. For cells, fluorescence was measured on triplicates of 300 cells using the microscope Axioplot (Zeiss). For kidney sections, pictures at 20× were taken using the camera Axio MRc5 (Zeiss) with the microscope Axioplan 2 (Zeiss), positive cells were counted on 6 sections for each group for each experiment using the ImageJ software.
as §1, §2, §3
For Immunohistochemistry 10 μm cryosections were washed in Tween-0.1% in PBS (like all washes), fixed in PAF4%, permeabilized in Triton 0.1% in PBS, incubated in hydrogen peroxide 0.3% for 30 min, blocked for 1 h at room temperature with 5% Normal Goat Serum (Sigma Aldrich) 3% bovine serum albumin (BSA, Sigma) in phosphate-buffered saline, incubated O/N at 4° C. with the Antibody (ab) in blocking buffer diluted at 1:500. Sections were then incubated with the Dako EnVision+System-HRP (Dako). Staining is completed by an incubation with 3,3′ diaminobenzidine tetrahydrochloride (DAB) DAB+Substrate Chromogen System (DakoCytomation) and counterstained with Harris Hematoxylin (Sigma Aldrich). diluted 1/10 for 3 min.
A grid of squares 13.625 μm large was applied to sections of kidneys stained with Hematoxylin-Eosin. Each cross is marked with a dot, number of dots inside the lumen are counted on three litters (218 000 μm^2 for each). The degree of dilatation is determined according to Lu et al., 1999 ^32:1 dot: normal tubules; 2 dots: dilatated tubules; 3-9 dots: Small cysts; ≥10 dots: Cysts.

The test system of data set [2] is Pkd1^−/− MEFs. The data set can be described thus: Western blot of signalling phosphoproteins (pAMPK, pERK, pS6RP, pLKB1). It counts as cell-based, mouse.
Experimental: (§5) Antibodies anti-p-Akt 5473, anti-p-AMPK-Thr172; anti-AMPK, anti-p-S6RP Ser 235/236; anti-S6Rp; anti-p-ERK T202/Y204 and anti-ERK antibodies were from Cell Signaling Technology and used at 1:1000; anti-LC3 NB100 was from Novus Biologicals; anti-actin and anti-tubulin antibodies were from Sigma Aldrich and used at 1:5000. Anti-ki67 was from Novocastra and was used at 1:400. UO126 and rapamycin (Cell Signaling Technologies) were employed at final concentrations of 30 μM and 20 or 50 nM, respectively. AICAR and Metfomin (Sigma Aldrich) were used at the final concentration of 2 mM, oligomycin (Sigma Aldrich) was used at the final concentration of 30 μg/ml.
For western blot analysis, the cells were lysed [lysis buffer: 250 mM sucrose, 20 mM imidazole and 1 mM EDTA, pH 7.4, 0.5% Triton-X 100, supplemented with Protease Inhibitors Cocktail (Amersham) and phosphatase inhibitors (1 mM final of glycerophosphate, sodium orthovanadate and sodium fluoride)]. Total lysates were quantified and Laemmli buffer was added to reach a 1× final concentration. Proteins were resolved in a SDS-PAGE gel and transferred onto PVDF membranes. Next, 5% milk in TBS-T was used for blocking and for secondary antibody incubations, while 2% BSA in TBS-T was used for incubations with primary antibodies. HRP-conjugated secondary antibodies (from Roche) were visualized using the ECL System (Amersham), which were mixed with Super-Femto ECL System from Pierce when necessary.
Data set [3] relates to Pkd1^+/+ MEFs. To be noted: UO126.
Experimental: as §5
For western blot analysis, the cells were lysed [lysis buffer: 250 mM sucrose, 20 mM imidazole and 1 mM EDTA, pH 7.4, 0.5% Triton-X 100, supplemented with Protease Inhibitors Cocktail (Amersham) and phosphatase inhibitors (1 mM final of glycerophosphate, sodium orthovanadate and sodium fluoride)]. Total lysates were quantified and Laemmli buffer was added to reach a 1× final concentration. Proteins were resolved in a SDS-PAGE gel and transferred onto PVDF membranes. Next, 5% milk in TBS-T was used for blocking and for secondary antibody incubations, while 2% BSA in TBS-T was used for incubations with primary antibodies. […]
In the next data set the test system is PKD mouse model. To be noted: Takiar et al. 2011; cited from earlier work.
In data set [4] the test system is Pkd1^+/+ MEFs. Description: ATP content of MEFs after oligomycin. It counts as cell-based, mouse. The following applies: oligomycin for 5 h, before treatment 102891+/−1042 RLU. How it is done: For ATP content evaluation, whole-cell extracts of control and treated MEFs cells were prepared by suspending pellets in lysis buffer as described in Distefano et al, 2009. […] Medium of control and treated MEFs was taken after 24 h at 100% of confluence. The concentration of lactate using EnzyChrom™ L-lactate Assay Kit (BioAssay Systems) and quantified on the final number of cells.

Data set [5] has as its system Pkd1^−/− MEFs. The data set can be described thus: Autophagosomes per cell by electron microscopy / autophagy. It counts as cell-based, mouse. To be noted: rapamycin 50 nM. As for the experimental part:
(§4) Cell culture monolayers were fixed for 15 min at 4° C. with PAF 4% and 2.5% glutaraldehyde in 125 mM cacodylate buffer. The monolayers were detached by rubber and centrifuged at high speed. The pellet was post-fixed (1 hour) with 2% OsO4 in 125 mM cacodylate buffer, was washed, dehydrated and embedded in Epon. Conventional thin sections were collect on uncoated grids, stained with uranil and lead citrate and examined in a Leo912 electron microscope.

For data set [6], the system named is Pkd1^+/+ MEFs. Description: Autophagosomes per cell by electron microscopy. It counts as cell-based, mouse. The following applies: rapamycin 50 nM. How it is done:
as §4

Setting [7] is: 2DG 500 mg/kg daily P6 to P8, genotype not stated.
Where [8] appears, read: 2DG 500 mg/kg daily P6 to P8, treated vs untreated mutant kidneys.
Setting [9] is: cystic kidneys treated with 2DG.

In the case of `O=CC[C@@H](O)[C@H](O)[C@H](O)CO` [2DG, 2-deoxyglucose], in data set [1], the body weight entry is “did not alter” and the kidney weight result was “did not affect”. Further, in the data set with Pkd1^flox/−:Ksp-Cre mice (2DG 500 mg/kg daily P6 to P8, vs vehicle (NaCl)), the “proliferation index in the cystic kidneys (Ki67 assay)” value is given as “decreased; also recorded: reduced”. Moreover, the “proliferation rates in the cyst lining epithelium (Ki67)” value in the data set on Pkd1^flox/−:Ksp-Cre mice (2DG 500 mg/kg daily P6 to P8, NaCl 28.48+/−5.39%) was 10.53+/−4.38%. Further, in the data set with Pkd1^flox/−:Ksp-Cre mice (setting [7]), the “brain weight normalized by body weight” value is recorded as “did not showed effect; also recorded: do not change” and the “liver weight normalized by body weight” value is reported as “did not showed effect; also recorded: do not change”. Also, the body weight result in the data set with Pkd1^flox/−:Ksp-Cre mice (2DG 500 mg/kg daily P6 to P8, mutant mice) is on record as “did not alter; also recorded: do not change”. Moreover, in the data set on Pkd1^flox/−:Ksp-Cre mice (setting [8]), the “number of normal and dilated tubules (cystic index)” value is given as “slightly reduced”; the “number of small cysts (cystic index)” value is listed as “significantly reduced”. In the data set with Pkd1^flox/−:Ksp-Cre mice (2DG 500 mg/kg daily subcutaneously P6 to P8, mutant mice, vs vehicle (NaCl)), the “ratio of kidney weight on body weight” value is listed as “effect of the treatment with the 2DG only on mutant animals; also recorded: significantly reduced”. In the data set on Pkd1^flox/−:Ksp-Cre mice (setting [9]), the “number of cysts (cystic index)” value is recorded as “significant decrease” and the “number of normal tubules (cystic index)” value is reported as “increased”.

As for `NC(=O)c1ncn([C@@H]2O[C@H](CO)[C@@H](O)[C@H]2O)c1N` [AICAR, 5-aminoimidazole-4-carboxamide ribonucleoside], in the data set with Pkd1^−/− MEFs [2] (AICAR (1 mM)), the pAMPK levels result is recorded as “restored; also recorded: increased” and the pERK result was “restored to baseline levels; also recorded: inhibited”.

As to `N#CC(=C(/N)Sc1ccccc1N)/C(C#N)=C(/N)Sc1ccccc1N` [UO126], the “pLKB1 levels (LKB1 phosphorylation at 5428)” value in the data set with Pkd1^+/+ MEFs [3] was “reduced”. In the data set with Pkd1^−/− MEFs [2] (30 μM UO126 for 12 h), the pAMPK entry is “enhances”, the pERK result is “restores normal” and the pS6RP result was “restores normal”. In the data set with Pkd1^−/− MEFs [2] (UO126, Pkd1^−/− MEFs), the “pLKB1 levels (LKB1 phosphorylation at 5428)” value is listed as “reduced”.

As to `CN(C)C(=N)N=C(N)N` [metformin], in the data set with Pkd1^−/− MEFs [2] (metformin (2 mM)), the pAMPK levels result is reported as “restored; also recorded: increased” and the pERK result is on record as “restored to baseline levels; also recorded: inhibited”. Also, the cyst expansion entry with PKD mouse model is “effectively reduce”.

As for `CC[C@H]1/C=C/C=C/C[C@@H](C)[C@H](O)[C@@](C)(O)C(=O)[C@@H](C)[C@H](O)[C@@H](C)C(=O)[C@@H](C)[C@H](O)[C@@H](C)/C=C/C(=O)O[C@@H]2[C@H](C)[C@H](CC1)O[C@]1(CC[C@H](C)[C@H](C[C@@H](C)O)O1)[C@H]2C` [oligomycin], the ATP content entry in the data set on Pkd1^+/+ MEFs [4] is reported as “decreased”.

On to `CO[C@H]1C[C@@H]2CC[C@@H](C)[C@@](O)(O2)C(=O)C(=O)N2CCCC[C@H]2C(=O)O[C@H]([C@H](C)C[C@@H]2CC[C@@H](O)[C@H](OC)C2)CC(=O)[C@H](C)/C=C(\C)[C@@H](O)[C@@H](OC)C(=O)[C@H](C)C[C@H](C)/C=C/C=C/C=C/1C` [rapamycin], for which the “number of autophagosomes per cells evaluated by EM” value is 0.96+/−0.18 a.u in the data set with Pkd1^−/− MEFs [5] and 2.87+/−0.55 a.u in the data set on Pkd1^+/+ MEFs [6].
